Here are results for two molecules from US11952363B2, “Piperazine compounds for the treatment of autoimmune disease” (Hoffmann-La Roche Inc., priority 2018, dated 2024).

The target of one series is T1, human TLR9 (Homo sapiens, UniProt Q9NR96).
T1 sequence (Q9NR96 26-1032): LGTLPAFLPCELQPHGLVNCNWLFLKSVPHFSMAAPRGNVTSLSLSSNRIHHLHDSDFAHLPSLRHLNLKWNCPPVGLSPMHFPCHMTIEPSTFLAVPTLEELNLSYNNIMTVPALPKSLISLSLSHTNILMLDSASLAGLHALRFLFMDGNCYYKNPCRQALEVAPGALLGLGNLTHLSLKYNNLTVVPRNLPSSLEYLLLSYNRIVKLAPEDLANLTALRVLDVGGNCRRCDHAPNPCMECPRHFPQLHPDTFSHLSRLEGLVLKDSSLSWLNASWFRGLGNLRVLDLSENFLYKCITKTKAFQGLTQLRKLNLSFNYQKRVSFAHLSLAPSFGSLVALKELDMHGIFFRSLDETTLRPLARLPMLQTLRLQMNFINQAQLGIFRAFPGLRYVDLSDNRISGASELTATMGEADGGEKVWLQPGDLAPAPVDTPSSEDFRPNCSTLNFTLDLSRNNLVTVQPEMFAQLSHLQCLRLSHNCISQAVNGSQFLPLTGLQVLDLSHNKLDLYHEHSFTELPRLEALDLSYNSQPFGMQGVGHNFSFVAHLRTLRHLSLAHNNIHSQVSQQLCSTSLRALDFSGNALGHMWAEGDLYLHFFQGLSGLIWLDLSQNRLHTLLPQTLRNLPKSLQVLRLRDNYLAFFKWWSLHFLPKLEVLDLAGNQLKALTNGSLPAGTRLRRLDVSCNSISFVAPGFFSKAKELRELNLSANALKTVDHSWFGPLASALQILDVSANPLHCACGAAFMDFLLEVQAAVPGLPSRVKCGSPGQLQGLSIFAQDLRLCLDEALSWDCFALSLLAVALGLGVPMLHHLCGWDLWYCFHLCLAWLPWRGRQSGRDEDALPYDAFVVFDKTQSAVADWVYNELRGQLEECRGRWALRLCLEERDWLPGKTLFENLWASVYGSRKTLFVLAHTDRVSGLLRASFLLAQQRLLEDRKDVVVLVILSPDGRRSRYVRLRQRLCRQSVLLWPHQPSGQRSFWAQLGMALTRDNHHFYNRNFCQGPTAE
As to the kind of experiment: HEK293-Blue-hTLR-9 cells assay (SEAP reporter, ODN2006 stimulation). Conditions: HEK293-Blue-hTLR9 cells, ODN2006 ligand, 20 hrs incubation; read-out: HEK/hTLR9 IC50. In kind it is cell-based. The procedure: The following tests were carried out in order to determine the activity of the compounds of formula (I) in HEK293-Blue-hTLR-7/8/9 cells assay.
A stable HEK293-Blue-hTLR-9 cell line was purchased from InvivoGen (Cat.#: hkb-htlr9, San Diego, California, USA). These cells were originally designed for studying the stimulation of human TLR9 by monitoring the activation of NF-κB. A SEAP (secreted embryonic alkaline phosphatase) reporter gene was placed under the control of the IFN-β minimal promoter fused to five NF-κB and. AP-1-binding sites. The SEAP was induced by activating NF-κB and AP-1 via stimulating HEK-Blue hTLR9 cells with TLR9 ligands. Therefore the reporter expression was declined by TLR9 antagonist under the stimulation of a ligand, such as ODN2006 (Cat.#: tlr1-2006-1, Invivogen, San Diego, California, USA), for incubation of 20 his. The cell culture supernatant SEAP reporter activity was determined using QUANTI-Blue™ kit (Cat.#: rep-qb1, Invivogen, San Diego, California, USA) at a wavelength of 640 nm, a detection medium that turns purple or blue in the presence of alkaline phosphatase.
HEK293-Blue-hTLR9 cells were incubated at a density of 250,000-450,000 cells/mL in a volume of 170 μL in a 96-well plate in Dulbecco's Modified Eagle's medium (DMEM) containing 4.5 g/L glucose, 50 U/mL penicillin, […], […], 2 mM L-glutamine, 10% (v/v) heat-inactivated fetal bovine serum with addition of 20 μL test compound in a serial dilution in the presence of final DMSO at 1% and 10 p L of 20uM ODN2006 in above DMEM, perform incubation under 37° C. in a CO2 incubator for 20 hrs. Then 20 μL of the supernatant from each well was incubated with 180 μL Quanti-blue substrate solution at 37° C. for 2 h and the absorbance was read at 620˜655 nm using a spectrophotometer. The signaling pathway that TLR9 activation leads to downstream NF-κB activation has been widely accepted, and therefore similar reporter assay was modified for evaluating TLR9 antagonist.

Series [1] in a line: Human microsomal stability assay. It counts as in vitro ADME. The following applies: human liver microsomes 0.5 mg/mL, 1 μM test compound, 37° C., pH 7.4. The procedure: Human liver microsomes (Cat.NO.: 452117, Corning, USA) were preincubated with test compound for 10 minutes at 37° C. in 100 mM potassium phosphate buffer, pH 7.4. The reactions were initiated by adding NADPH regenerating system. The final incubation mixtures contained 1 μM test compound, 0.5 mg/mL liver microsomal protein, 1 mM MgCl2, 1 mM NADP, 1 unit/mL isocitric dehydrogenase and 6 mM isocitric acid in 100 mM potassium phosphate buffer, pH 7.4. After incubation times of 0, 3, 6, 9, 15 and 30 minutes at 37° C., 300 μL of cold ACN (including internal standard) was added to 100 μL incubation mixture to terminate the reaction. Following precipitation and centrifugation, 100 uL supernatant will be taken out and added 300 uL water. The amount of compound remaining in the samples was determined by LC-MS/MS. Controls of no NADPH regenerating system at zero and 30 minutes were also prepared and analyzed.
(Microsomes from liver hold many membrane-bound enzymes, among them those of drug oxidation.)

Regarding `C[C@@H]1CN(c2ccc(C#N)c3ncccc23)C[C@H](C)N1Cc1ccc(N[C@@H]2CNC[C@@H]2F)cn1` [Example 9, 5-[(3R,5S)-3,5-Dimethyl-4-[[5-[[(3R,4S)-4-fluoropyrrolidin-3-yl]amino]-2-pyridyl]methyl]piperazin-1-yl]quinoline-8-carbonitrile], the IC50 on human TLR9 is 47 nM. Besides, in series [1], the “Clearance of Human microsome” value is 12.8 mL/min/kg.

`CC1CN(c2ccc(C#N)c3ncccc23)CCN1CC(=O)Nc1ccc2c(c1)CCNC2` (stereo not shown) [Example 18, 2-[4-(8-Cyano-5-quinolyl)-2-methyl-piperazin-1yl]-N-(1,2,3,4-tetrahydroisoquinolin-6-yl)acetamide]: on human TLR9, the IC50 is 119 nM. In addition, the “Clearance of Human microsome” value in series [1] amounted to 6.3 mL/min/kg.
